Reference: patent US20230089949A1, “SMALL MOLECULES FOR TREATING AGE-RELATED RETINAL DISEASES” (University of Pittsburgh - Of the Commonwealth System of …, priority 2020, published 2023)

How the values were obtained:
[1] = tested on: Aged Fischer 344 rats; assay: Histological analysis of retinal outer nuclear layer (ONL) in aged Fischer 344 rats (Example 1); format: in vivo, rat
Procedure: Aged Fischer 344 rats were treated with oral 8-AG (5 mg/kg/day for 6 weeks; drug delivered via the drinking water), or were a control, and the eyes of the rats were harvested for histological analysis of the retinal outer nuclear layer (ONL) and the results were compared with a corresponding histological analysis of young Fischer 344 rats (FIG. 8). With advance age, there is likely to be a loss of photoreceptors with associated thinning and eventual loss of the overlying ONL (see Schuman et al., Ophthalmology, 116:488-96.e2, 2009)
The orientation of each eye was randomly embedded and sectioned. The fixed eyes were placed in a histology processing cassette for serial alcohol based dehydration. Dehydrated eyes were embedded in paraffin, and retinal cross sections were cut at 6 μm thickness. Retinal cross sections near the optic nerve were stained by hematoxylin and eosin (H&E). Images of H&E-stained retinal cross sections were collected under 4× and 20× objectives. […]
In each retinal cross section image under the 20× objective, the outer nuclear layer (ONL) thickness was measured at 6 locations along the image to calculate the average ONL thickness. […]

[2] = tested on: aged F344 rat retinae; assay: Retinal morphology (H&E, rhodopsin immunofluorescence) in F344 rat model of age-related photoreceptor degeneration (Example 2); format: in vivo
Procedure: To test the efficacy of 8-AG in photoreceptor degeneration, 8-AG was administered in two animal models including the F344 rat of age-related photoreceptor degeneration, and the Rho^P23H/+ knock-in mice of retinitis pigmentosa and examine the retinal morphology and function.
(§1) For treatment, female F344 rats were orally administered with 5 mg per kg body weight (bw) of 8-aminoguanine (8-AG) per day in the drinking water starting at 22-24 months of age for 8 weeks. Non-treated age-matched F344 rats and young adult F344 rats at 3-4 months of age were used as controls. RhoP^23H/+ mice were administered with 8-AG for 11 mg per kg bw per day by intraperitoneal injections starting from postnatal day (PND) 15 for five weeks. PBS treated Rho^P23H/+ and WT mice were used as controls.
Eyes were enucleated by a surgical scissor cutting around the eyeball. Each eye was opened with a cut at the cornea side of the limbus, cut horizontally at the edge of the cornea for a circle, corneas removed and lens isolated. Eyecups were incubated in freshly prepared 4% paraformaldehyde for 2 hr. Fixed eyecups were dehydrated sequentially in 5, 10, 20 and 40% sucrose solutions in phosphate buffered saline (PBS) for 30 min each at room temperature. Finally, eyecups were incubated in a mixture of 40% sucrose in PBS and O.C.T. compound (FisherScientific, Houston, Tex. USA) at 3:7 volume ratio overnight at 4° C. before they are embedded in the same mixed solution in an orientation-specific manner and frozen in liquid nitrogen-bathed isobutene. A microtome made twelve-micron retinal cross-sections at −18° C. and those containing the optic nerve head were applied onto a SUPERFROST™ glass slide (FisherScientific, Houston, Tex. USA). These slides were then used for IHC.
After rehydration and permeabilization in PBST for 15 min, retinal sections were incubated in 5% goat serum for 30 min, and then they were incubated with 5% goat serum containing the primary antibodies. […]

[3] = tested on: Rho^P23H/+ knock-in mice; assay: Retinal morphology and scotopic ERG in Rho P23H/+ knock-in mice of retinitis pigmentosa; format: in vivo, mouse; settings: 11 mg per kg bw per day i.p. for five weeks from PND 15
Procedure: as §1
(§2) Electroretinogram (ERG): ERG was performed using the Celeris system (Diagnosys, Lowell, Mass., USA). Rats were placed in the dark overnight. During the ERG test, protect the rats from the light from the beginning to the finish of the scotopic test, only use the dim light to do the preparation in the dark room. Pupils were dilated with 1% tropicamide (Akorn, Lake Forest, Ill., USA) and 2.5% phenylephrine (Sigma). Rats were anesthetized with an intraperitoneal injection of ketamine at 80 mg/kg bw and xylazine at 7 mg/kg bw. Eyes were lubricated by a 0.3% hypromellose eye gel (Alcon, Fort Worth, Tex., USA). A heating pad was used to maintain body temperature at 37° C. Scotopic ERG responses of dark-adapted eyes to ten flashes from 0.0001 cd·s/m^2 to 100 cd·s/m^2 were recorded and averaged from three sweeps per flash intensity with inter-sweep intervals of 10 to 30 s. After exposed to 10 cd/m^2 illumination for 10 min, the photopic ERG responses were recorded from the light-adapted eyes in response to flashes from 0.01 cd·s/m^2 to 100 cd·s/m^2 in addition to a 10 cd/m^2 background light. P-values were calculated by a two-way ANOVA to determine the statistical significance between the response amplitudes in the 8-AG treated group and untreated group. Factor 1, treatment condition; and factor 2, flash intensity.
Retinal histology and H&E staining: To examine the structure of the aging rats' retinas treated with 8-AG, the rats were euthanized, their eyes removed, and fixed in 4% paraformaldehyde and 1% glutaraldehyde before paraffin sectioning. […]

[4] = tested on: aged F344 rat retinae; assay: Immunoblots of protein markers of mitochondria function, oxidative stress and apoptosis in aged F344 rat retinae; format: in vivo
Procedure: A range of protein markers of mitochondria function and apoptosis was probed in the retinae of young, aged and 8-AG treated aged F344 rat retinae, as well as the mitochondrial superoxide dismutase 2 (SOD2), an enzyme protecting tissue from damage by ROS, using immunoblots. […] The fact that chronic 8-AG […] retinal levels of SOD2 is consistent with reduced retinal oxidative stress in 8-AG-treated aged rats.
as §1
Western Immunoblotting: The freshly isolated retinae were homogenized using Lysing Matrix D in a FASTPREP-24™ instrument (MP Biomedicals) in HBSS buffer (5 mM KCl, 0.3 mM KH2PO4, 138 mM NaCl, 4 mM NaHCO3, 0.3 mM Na2HPO4, 5.6 mM glucose, and 10 mM HEPES, pH 7.4) containing complete protease inhibitor cocktail (1 tablet/10 ml, Roche) and phosphatase inhibitor cocktail (MilliporeSigma, 1:100). After centrifugation (16200 g, 15 minutes at 4° C.), the membrane protein fraction was prepared by suspending the membrane pellets in lysis buffer containing 0.3M NaCl, 50 mM Tris-HCl (pH 7.6), and 0.5% Triton X-100, as well as the same concentration of protease inhibitors as above. The suspensions were incubated on ice and centrifuged (16200 g, 15 minutes at 4° C.). The protein concentrations of the combined supernatants were determined using the Pierce BCA protein assay (Thermo Fisher Scientific). Two μg of unheated total protein was loaded on a 4%-15% TGX Stain-Free SDS-PAGE gel (Bio-Rad). As a reliable loading control, total protein measurement per sample was determined using Bio-Rad Stain Free SDS-PAGE gel technology. UV-activated protein fluorescence was imaged on a ChemiDoc MP (Bio-Rad). The gel was electrotransferred to polyvinylidene fluoride membrane and immunoblotted with 1D4 anti-rhodopsin antibody (5 μg/mL). After washing in TBS-T, the membranes were incubated with secondary antibody, sheep anti-mouse HRP (Southern Biotech), developed using WESTERNBRIGHT® Quantum (Advansta), and imaged on a ChemiDoc MP (BioRad). The volume (intensity) of each protein species was determined and normalized to total protein using Image Lab software (Bio-Rad).

[5] = tested on: aged F344 rat retinae; assay: Immunofluorescence of GFAP and CD68 in aged F344 rat retinae; format: in vivo; settings: 5 mg/kg bw per day in drinking water for eight weeks from 22 months of age
Procedure: Glial cells are activated upon photoreceptor degeneration, and retinal immune response is thought to contribute to photoreceptor degeneration as the disease progresses. Activated macrophages were reported to not only scavenge dead cells, but also can phagocytose living photoreceptors (McMenamin et al. Prog. Retin. Eye Res. 70, 85-98, doi:10.1016/j.preteyeres. 2018.12.002 (2019)).
as §1
Eyes were enucleated by a surgical scissor cutting around the eyeball. Each eye was opened with a cut at the cornea side of the limbus, cut horizontally at the edge of the cornea for a circle, corneas removed and lens isolated. Eyecups were incubated in freshly prepared 4% paraformaldehyde for 2 hr. Fixed eyecups were dehydrated sequentially in 5, 10, 20 and 40% sucrose solutions in phosphate buffered saline (PBS) for 30 min each at room temperature. […]

[6] = tested on: aged F344 rat retinae; assay: SD-OCT of ONL thickness in aged F344 rats, 0 vs 4 wks; format: in vivo
Procedure: (§3) The potent efficacy of 8-AG in preserving retinal morphology and function of the aged F344 rats and Rho^P23H/+ mice were shown in FIGS. 11A-11D and […].
Optical coherence tomography (OCT): To assess the 8-AG treatment on old F344 rats, ultrahigh-resolution SD-OCT (Bioptigen, Morrisville, N.C.) was performed for in vivo imaging of rats retinas. Pupils were dilated with 1% tropicamide (Akorn, Lake Forest, Ill., USA) and 2.5% phenylephrine (Sigma). Rats were anesthetized with an intraperitoneal injection of ketamine at 80 mg/kg bw and xylazine at 7 mg/kg bw. Eyes were lubricated by a 0.3% hypromellose eye gel (Alcon, Fort Worth, Tex., USA). A heating pad was used to maintain body temperature; the A scan/B scan ratio was set at 1200 lines. Five frames of OCT images scanned at 0° were acquired in the B-mode, averaged, and saved as pdf files. To measure changes to photoreceptors in the retinas assess the effect of 8-AG on retinal protection, the thickness of the ONL was measured along with the scanned SD-OCT image at 6 points from the temporal to nasal end of the retina. A graph of ONL thicknesses was plotted to obtain the means and standard error (SE) of the samples.

[7] = tested on: aged F344 rat retinae; assay: Electroretinogram (ERG) of aged F344 rats, 0 vs 4 wks; format: in vivo; settings: 5 mg/kg bw per day in drinking water; 4 wks vs 0 wk
Procedure: as §3, §2

[8] = tested on: Dahl salt-sensitive rats; assay: Chronic effects of 8-AG in Dahl salt-sensitive rats on high salt diet (MRI, organ histology); format: in vivo, rat; settings: high salt diet with 8AG for 40 days; independent veterinary pathology lab
Text: (§4) While the genetic loss of PNPase activity is toxic and results in a compromised immune system, partial inhibition of PNPase by pharmacological administration is safe. The chronic effects of 8-AG have been examined in Dahl salt-sensitive rats, which is a model of genetic hypertension that is exacerbated by providing a high salt diet. […] Next, organs from these animals were examined histologically by an independent veterinary pathology lab.

[9] = tested on: animals; assay: Observed toxicity in the animal experiments that were performed; format: in vivo
Text: as §4

[10] = tested on: Dahl salt-sensitive rats; settings: high salt diet with 8AG for 40 days; vs untreated high-salt control; cited from earlier work
[11] = 5 mg per kg bw per day in drinking water for 8 weeks from 22 months of age, central, equatorial and peripheral sites, vs untreated age-matched group
[12] = 5 mg/kg bw per day in drinking water from 24 months, 4 wks compared to before treatment

## Nc1nc2[nH]c(N)nc2c(=O)[nH]1 [8-AG, 8-aminoguanine]
[1]; oral 8-AG 5 mg/kg/day for 6 weeks via drinking water, edge of old retinae, retinal edges with preserved ONL
  ONL preservation in retinal edges: 7 out of 8
[1]; oral 8-AG 5 mg/kg/day for 6 weeks, treated vs untreated old rats, independent of retinal location
  ONL thickness, effect of treatment (2-way ANOVA): significant
[2]; [11]
  ONL thickness: distinctively increased
  OS/IS thickness: distinctively increased
[2]; 5 mg per kg bw per day in drinking water for 8 weeks, vs untreated aged retinae
  Rhodopsin levels (immunofluorescence): increased
[3]; H&E
  ONL layer thickness: thicker
[3]; vs vehicle control group
  scotopic ERG a-wave response: significantly higher
  scotopic ERG b-wave response: significantly higher
[4]; chronic oral 8-AG 5 mg/kg for 8 wks, immunoblot, aged rats
  retinal levels of SOD2: decreased
[4]; oral 8-AG 5 mg/kg for 8 wks, aged F344 retina
  Rhodopsin levels (immunoblot): restored
[4]; oral 8-AG 5 mg/kg for 8 wks, immunoblot
  retinal MFN2 levels: further increased
[4]; oral 8-AG 5 mg/kg for 8 wks, immunoblot, aged retinae
  cleaved CASP3: reduced
[5]
  GFAP staining: did not affect
  number of CD68+ cells: significantly reduced
[6]; [12]
  ONL thickness, nasal side (SD-OCT): slight increase
  ONL thickness, temporal side (SD-OCT): no change
[6]; single exemplary retina, 4 wks of treatment
  ONL at sites where it had disappeared before treatment (SD-OCT): reappeared
[7]
  photopic b wave responses: did not affect
  scotopic a-wave: significantly increased
  scotopic b-wave: significantly increased
[8]
  microscopic alterations in heart, kidney, liver, aorta, adrenal gland (histology): No treatment-related microscopic alterations
[9]
  toxicity: no observed toxicity
[10]
  strokes in the cerebral cortex and subcortical areas (MRI): protected from strokes
